According to ChEMBL document CHEMBL1139064, “Carbonic anhydrase activators: an activation study of the human mitochondrial isoforms VA and VB with amino acids and amines” (Bioorg Med Chem Lett, 2007):

Experiments:
[1] = molecular target: Carbonic anhydrase 5A, mitochondrial (Homo sapiens) (UniProt P35218); test: Activation of human recombinant carbonic anhydrase 5A by stopped-flow CO2 hydrase method
[2] = molecular target: Carbonic anhydrase 5B, mitochondrial (Homo sapiens) (UniProt Q9Y2D0); test: Activation of human recombinant carbonic anhydrase 5B by stopped-flow CO2 hydrase method
Chain of Carbonic anhydrase 5B, mitochondrial (Homo sapiens) (Q9Y2D0 whole entry): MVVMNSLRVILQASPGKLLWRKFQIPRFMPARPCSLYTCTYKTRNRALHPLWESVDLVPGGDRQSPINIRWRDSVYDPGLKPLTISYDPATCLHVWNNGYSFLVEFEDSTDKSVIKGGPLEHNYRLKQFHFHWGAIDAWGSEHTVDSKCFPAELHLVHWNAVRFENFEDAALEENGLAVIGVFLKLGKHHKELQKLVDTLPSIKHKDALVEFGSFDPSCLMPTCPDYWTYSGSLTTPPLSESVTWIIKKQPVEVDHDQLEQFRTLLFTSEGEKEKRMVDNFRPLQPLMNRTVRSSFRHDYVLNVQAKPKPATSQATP

Chain of Carbonic anhydrase 5A, mitochondrial (Homo sapiens) (P35218 whole entry): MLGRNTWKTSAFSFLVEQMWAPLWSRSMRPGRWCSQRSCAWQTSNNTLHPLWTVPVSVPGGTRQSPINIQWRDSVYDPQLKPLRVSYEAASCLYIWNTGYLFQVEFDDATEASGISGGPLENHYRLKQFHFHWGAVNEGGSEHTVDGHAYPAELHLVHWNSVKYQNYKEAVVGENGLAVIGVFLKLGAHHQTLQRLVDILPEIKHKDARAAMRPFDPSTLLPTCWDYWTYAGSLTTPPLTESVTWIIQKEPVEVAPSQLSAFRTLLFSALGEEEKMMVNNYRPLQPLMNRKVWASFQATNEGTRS

SMILES | KA [1] | KA [2]
N[C@@H](Cc1ccc(O)c(O)c1)C(=O)O | 0.036 µM | 0.063 µM
N[C@H](Cc1c[nH]cn1)C(=O)O | 0.12 µM | 4.38 µM
Nc1ccc(C[C@H](N)C(=O)O)cc1 | 2.76 µM | 2.17 µM
NCc1ccccn1 | 23.6 µM | 0.24 µM
N[C@H](Cc1c[nH]c2ccccc12)C(=O)O | 1.24 µM | 1.35 µM
NCCN1CCNCC1 | 6.04 µM | 0.91 µM
N[C@@H](Cc1ccc(O)cc1)C(=O)O | 2.45 µM | 0.044 µM
N[C@H](Cc1ccc(O)c(O)c1)C(=O)O | 4.59 µM | 3.71 µM
N[C@@H](Cc1c[nH]c2ccccc12)C(=O)O | 1.13 µM | 0.89 µM
NCCc1ccc(O)c(O)c1 | 0.13 µM | 7.85 µM
NCCN1CCOCC1 | 0.089 µM | 1.15 µM
N[C@@H](Cc1c[nH]cn1)C(=O)O | 1.34 µM | 0.97 µM
NCCc1c[nH]c2ccc(O)cc12 | 6.33 µM | 0.11 µM
NCCc1ccccn1 | 7.62 µM | 0.094 µM
NCCc1c[nH]cn1 | 0.01 µM | 3.52 µM
